Measured values as given in patent US20030134859A1 (SANKYO COMPANY, LIMITED, priority 2000, published 2003).
Structures can show the parent of a compound that is named as a salt.

What follows are compounds tested against T1, human PPAR γ 2 (Homo sapiens, UniProt P37231) (assay: Inhibitory activity against PPAR γ transcription in the presence of agonist compound A, luciferase reporter). Details: in the presence of 10 nM compound A (agonist); MG63 cells transfected with pSG5-hPPARg and pGV-P2-PPRE; 24 hr.
T1 construct: expressed in transfected cells; host or cells: human osteosarcoma MG63, transiently co-transfected with pSG5-hPPARg and the reporter pGV-P2-PPRE
T1 sequence (P37231 1-505): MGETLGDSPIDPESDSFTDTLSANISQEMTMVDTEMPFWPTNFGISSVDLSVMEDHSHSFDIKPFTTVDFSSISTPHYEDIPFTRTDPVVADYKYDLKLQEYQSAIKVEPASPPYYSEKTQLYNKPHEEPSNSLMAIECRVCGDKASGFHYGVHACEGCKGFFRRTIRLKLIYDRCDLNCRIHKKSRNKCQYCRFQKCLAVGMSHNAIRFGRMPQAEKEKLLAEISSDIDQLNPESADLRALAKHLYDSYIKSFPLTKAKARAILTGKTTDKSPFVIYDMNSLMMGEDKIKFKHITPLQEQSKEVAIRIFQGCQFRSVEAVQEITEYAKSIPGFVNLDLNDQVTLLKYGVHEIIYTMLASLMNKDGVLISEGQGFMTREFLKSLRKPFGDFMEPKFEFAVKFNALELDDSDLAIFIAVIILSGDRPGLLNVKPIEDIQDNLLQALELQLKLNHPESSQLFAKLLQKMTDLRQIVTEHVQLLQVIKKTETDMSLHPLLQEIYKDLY
Format: cell-based
With Cc1ccc2nc(-c3ccc(NC(=O)c4cc([N+](=O)[O-])ccc4Cl)cc3)sc2c1 [Example 10, N-[4-(6-Methylbenzothiazol-2-yl)phenyl]-(2-chloro-5-nitrophenyl)carboxamide] the IC50 was 71 nM.
For N#Cc1ccc(NC(=O)c2cc([N+](=O)[O-])ccc2Cl)cc1 [Example 20, N-(4-Cyanophenyl)-(2-chloro-5-nitrophenyl)carboxamide], the IC50 was 15 nM.
Cc1cccc(-c2csc(NC(=O)c3cc([N+](=O)[O-])ccc3Cl)n2)c1 [Example 40, N-[4-(3-Methylphenyl)thiazol-2-yl)-(2-chloro-5-nitrophenyl)carboxamide] showed an IC50 of 57 nM.
For CCc1ccc(-c2csc(NC(=O)c3cc([N+](=O)[O-])ccc3Cl)n2)cc1 [Example 44, N-[4-(4-Ethylphenyl)thiazol-2-yl]-(2-chloro-5-nitrophenyl)carboxamide], the IC50 was 84 nM.
O=C(Nc1cccnc1)c1cc([N+](=O)[O-])ccc1Cl [Example 50, N-(3-Pyridyl)-(2-chloro-5-nitrophenyl)carboxamide] gave an IC50 of 110 nM.
Compound Cc1ccnc(NC(=O)c2cc([N+](=O)[O-])ccc2Cl)n1 [Example 65, N-(4-Methylpyrimidin-2-yl)-(2-chloro-5-nitrophenyl)carboxamide] has an IC50 of 37 nM.
For Cc1cc(Cl)nc(NC(=O)c2cc([N+](=O)[O-])ccc2Cl)n1 [Example 78, N-(4-Chloro-6-methylpyrimidin-2-yl)-(2-chloro-5-nitrophenyl)carboxamide], the IC50 was 84 nM.
CC(C)(C)OC(=O)Nc1ccc(-c2ccc(NC(=O)c3cc([N+](=O)[O-])ccc3Cl)cc2)cc1 [Example 87, N-[4-[4-(tert-Butoxycarbonylamino)phenyl]phenyl]-(2-chloro-5-nitrophenyl)carboxamide] showed an IC50 of 33 nM.
Compound CCCCCCNc1ccc(-c2ccc(NC(=O)c3cc([N+](=O)[O-])ccc3Cl)cc2)cc1 [Example 195, N-[4-[4-(N-Hexylamino)phenyl]phenyl]-(2-chloro-5-nitrophenyl)carboxamide] has an IC50 of 18 nM.
For CCCCCCN(C)c1ccc(-c2ccc(NC(=O)c3cc([N+](=O)[O-])ccc3Cl)cc2)cc1 [Example 196, N-[4-[4-(N-Hexyl-N-methylamino)phenyl]phenyl]-(2-chloro-5-nitrophenyl)carboxamide], the IC50 was 990 nM.
CCCCCCN(CC)c1ccc(-c2ccc(NC(=O)c3cc([N+](=O)[O-])ccc3Cl)cc2)cc1 [Example 197, N-[4-[4-(N-Ethyl-N-hexylamino)phenyl]phenyl]-(2-chloro-5-nitrophenyl)carboxamide] showed an IC50 of 280 nM.
CCCCCCCCNc1ccc(-c2ccc(NC(=O)c3cc([N+](=O)[O-])ccc3Cl)cc2)cc1 [Example 219, N-[4-[4-(N-Octylamino)phenyl]phenyl]-(2-chloro-5-nitrophenyl)carboxamide] showed an IC50 of 8.3 nM.
Work on CCCCCCCCN(CCCCCC)c1ccc(-c2ccc(NC(=O)c3cc([N+](=O)[O-])ccc3Cl)cc2)cc1 [Example 220, N-[4-[4-(N-Hexyl-N-octylamino)phenyl]phenyl]-(2-chloro-5-nitrophenyl)carboxamide mono-hydrochloride] yielded an IC50 of 18 nM.
CCCCCCCCN(CCCC)c1ccc(-c2ccc(NC(=O)c3cc([N+](=O)[O-])ccc3Cl)cc2)cc1 [Example 222, N-[4-[4-(N-Butyl-N-octylamino)phenyl]phenyl]-(2-chloro-5-nitrophenyl)carboxamide] showed an IC50 of 160 nM.
CCCCCCCCN(CCCC)c1ccc(-c2ccc(NC(=O)c3cc([N+](=O)[O-])ccc3Cl)cc2)cc1.Cl [Example 223, N-[4-[4-(N-Butyl-N-octylamino)phenyl]phenyl]-(2-chloro-5-nitrophenyl)carboxamide mono-hydrochloride] gave an IC50 of 89 nM.
With CCCCCCCCN(CCC)c1ccc(-c2ccc(NC(=O)c3cc([N+](=O)[O-])ccc3Cl)cc2)cc1 [Example 224, N-[4-[4-(N-Octyl-N-propylamino)phenyl]phenyl]-(2-chloro-5-nitrophenyl)carboxamide] the IC50 was 79 nM.
CCCCCCCCN(CC)c1ccc(-c2ccc(NC(=O)c3cc([N+](=O)[O-])ccc3Cl)cc2)cc1 [Example 225, N-[4-[4-(N-Ethyl-N-octylamino)phenyl]phenyl]-(2-chloro-5-nitrophenyl)carboxamide] was tested, and the IC50 was 190 nM.
Work on O=C(Nc1ccc(N2CCN(C(=O)c3ccncc3)CC2)cc1)c1cc([N+](=O)[O-])ccc1Cl [Example 228, N-[4-[4-(Pyridin-4-ylcarbonyl)piperazin-1-yl]phenyl]-(2-chloro-5-nitrophenyl)carboxamide] yielded an IC50 of 130 nM.
O=C(Nc1ccc(CCO)cc1)c1cc([N+](=O)[O-])ccc1Cl [Example 230, N-[4-(2-Hydroxyethyl)phenyl]-(2-chloro-5-nitrophenyl)carboxamide] was tested, and the IC50 was 19 nM.
O=C(Nc1ccc(-n2ccnc2)cc1)c1cccc(NC(=O)c2cc([N+](=O)[O-])ccc2Cl)c1 [Example 231, N-[[3-[4-(Imidazol-1-yl)phenyl]aminocarbonyl]phenyl]-(2-chloro-5-nitrophenyl)carboxamide] gave an IC50 of 60 nM.
Nc1nc(-c2cccc(NC(=O)c3cc([N+](=O)[O-])ccc3Cl)c2)cs1 [Example 233, N-[3-(2-Amiothiazol-4-yl)phenyl]-(2-chloro-5-nitrophenyl)carboxamide] showed an IC50 of 28 nM.
CC(C)(C)OC(=O)Nc1cccc(-c2csc(NC(=O)c3cc([N+](=O)[O-])ccc3Cl)n2)c1 [Example 234, N-[4-(3-tert-Butoxycarbonylaminophenyl)thiazol-2-yl]-(2-chloro-5-nitrophenyl)carboxamide] was tested, and the IC50 was 19 nM.
Compound CS(=O)(=O)N(c1ccc(-c2ccc(NC(=O)c3cc([N+](=O)[O-])ccc3Cl)cc2)cc1)S(C)(=O)=O [Example 235, N-[4-[4-(N,N-Dimethanesulfonylamino)phenyl]phenyl]-(2-chloro-5-nitrophenyl)carboxamide] has an IC50 of 19 nM.
Work on O=C(Nc1ccc(-c2ccc(NC(=S)Nc3ccncc3)cc2)cc1)c1cc([N+](=O)[O-])ccc1Cl [Example 258, N-[4-[4-[(Pyridin-4-yl)aminothiocarbonylamino]phenyl]phenyl]-(2-chloro-5-nitrophenyl)carboxamide] yielded an IC50 of 25 nM.
NCCc1ccc(NC(=O)c2cc([N+](=O)[O-])ccc2Cl)cc1 [Example 267, N-[4-(2-Aminoethyl)phenyl]-(2-chloro-5-nitrophenyl)carboxamide] was tested, and the IC50 was 60 nM.
Compound O=C(Nc1ccc(CCNC(=S)Nc2cccnc2)cc1)c1cc([N+](=O)[O-])ccc1Cl [Example 273, N-[4-[2-(Pyridin-3-yl)aminothiocarbonylaminoethyl]phenyl]-(2-chloro-5-nitrophenyl)carboxamide] has an IC50 of 13 nM.
